From patent US20090274622A1, “NECROSIS AVID TRACER AGENT” (K.U. Leuven Research & Development, priority 2003, published 2009)

Experiments:
[1] = system: HDL and LDL; conditions: reference 37; cited from earlier work
[2] = system: occlusive myocardial infarction; test: Ex vivo autoradiography of rabbit heart slices
[3] = system: occlusive myocardial infarction; test: In vivo SPECT imaging of rabbit with myocardial infarction; conditions: 24 and 48 hours post injection
Protocol: All animal experiments were conducted with the approval of the institutional ethical committee. • 1. […] Occlusive myocardial infarction: A New-Zealand adult rabbit weighing about 5 kg was sedated with intramuscular injection of a mixed solution of Ketalar (ketamine hydrochloride, Pfizer, Brussels, Belgium) at 15 mg/kg and Rompun (xylazine hydrochloride, Bayer, Leverkusen, Germany) at 2.5 mg/kg. The animal was then anaesthetized with an intravenous bolus injection of Nembutal at 15 mg/kg followed by IV infusion of Nembutal at 0.1 mg/kg/min through an ear vein. Under a cold-light laryngoscope with No. 1 pediatric blade (Riester®, Jungingen, Germany), the animal was intubated with a 3.5-mm endotracheal tube, which was then connected to an artificial ventilator (Mark 7 respirator, Bird Corporation, Palm Springs, Calif.). An open chest surgery of left posterolateral thoracotomy was performed. The pericardium was opened to expose the left circumflex coronary artery (LCX). A loose snare loop of a 3-0 silk suture was applied around the artery and tightened with ligature. The chest was closed after evacuation of the pneumothorax.
Two hours after reperfusion of the myocardial infarction, the rabbit was intravenously injected with 130 MBq MIH via an ear vein.
The rabbit imaging measurements were performed using a two-detector gamma camera (E-cam, Siemens Medical Systems, ErIangen, Germany). […]

[4] = system: reperfused hepatic infarction; test: Ex vivo autoradiography of rat liver slices with TTC and H&E staining
[5] = system: occlusive myocardial infarction; test: Tissue radioactivity counting of normal and infarcted rabbit myocardium; conditions: gamma counting, 48 h
[6] = system: reperfused hepatic infarction; test: Biodistribution of MIH in rats with reperfused hepatic infarction (tissue radioactivity counting); conditions: for Biodistribution, Blood / Biodistribution, Heart / Biodistribution, Kidneys / Biodistribution, Large intestine / Biodistribution, Lungs / Biodistribution, Muscle / Biodistribution, Necrotic liver / Biodistribution, Normal liver / Biodistribution, Small intestine / Biodistribution, Spleen / Biodistribution, Stomach / Biodistribution, Thyroid / Necrotic liver/Blood ratio / Necrotic liver/Intact liver ratio / Necrotic liver/Muscle ratio: i.v., mean ± SD, n = 3
[7] = quantification of autoradiography image

For `Cc1cc(O)c2c(=O)c3c(O)cc(O)c4c5c(O)c([123I])c(O)c6c(=O)c7c(O)cc(C)c8c1c2c(c34)c(c78)c65` [MIH, mono-[^123I]iodohypericin], the “binding to HDL and LDL in vivo” value [1] is given as “bind extensively to HDL and LDL”, the “autoradiography distribution of radioactive uptake in heart slice” value [2] is given as “radioactive uptake appears only in the infarcted region” and the “uptake ratio infarcted tissue limited to subendocardial area vs. control tissue” value [2, 7] is given as 16. For the same compound, the “uptake ratio overall infarcted myocardium vs. intact myocardium” value [2, 7] was “about 6”, the “whole body SPECT, coronal section” value [3] was “only one hot spot in the anatomical area of the heart” and the “autoradiography uptake in intact liver” value ([4]; 30 min p.i.) was “Pronounced radioactivity uptake”. The “autoradiography uptake in necrotic regions of infarcted liver lobe” value ([4]; 30 min p.i.) was “low uptake of MIH”, the “autoradiography uptake in intact liver” value ([4]; 24 h p.i.) was “activity from the intact liver has cleared” and the “autoradiography uptake in necrotic regions of infarcted liver tissue” value ([4]; 24 h p.i.) was “relatively high uptake of MIH”. The “radiotracer concentration in infarcted tissue vs healthy myocardium” value [5] was 7 fold, the “uptake in the infarcted region of myocardium” value [5] was 0.36 % of ID/g and the “uptake in the normal region of myocardium” value [5] was 0.05 % of ID/g. For the same compound, the “concentration ratio necrotic liver vs. blood” value ([6]; 24 hours p.i.) was 17, the “concentration ratio necrotic liver vs. muscle” value ([6]; 24 hours p.i.) was 57 and the “concentration in necrotic liver tissue relative to intact liver tissue” value ([6]; 24 h p.i.) was 3.2 times. The “in vivo deiodination (thyroid concentration)” value ([6]; 24 h p.i.) was “in vivo deiodination of MIH occurs”, the “Biodistribution, Blood” value ([6]; 30 min p.i.) was 1.34 ± 0.38 % of injected dose per gram tissue and the “Biodistribution, Heart” value ([6]; 30 min p.i.) was 0.47 ± 0.13 % of injected dose per gram tissue. The “Biodistribution, Kidneys” value ([6]; 30 min p.i.) was 0.35 ± 0.05 % of injected dose per gram tissue, the “Biodistribution, Large intestine” value ([6]; 30 min p.i.) was 0.03 ± 0.01 % of injected dose per gram tissue and the “Biodistribution, Lungs” value ([6]; 30 min p.i.) was 1.60 ± 0.58 % of injected dose per gram tissue. For the same compound, the “Biodistribution, Muscle” value ([6]; 30 min p.i.) was 0.03 ± 0.01 % of injected dose per gram tissue, the “Biodistribution, Necrotic liver” value ([6]; 30 min p.i.) was 1.91 ± 0.46 % of injected dose per gram tissue and the “Biodistribution, Normal liver” value ([6]; 30 min p.i.) was 3.80 ± 1.39 % of injected dose per gram tissue. The “Biodistribution, Small intestine” value ([6]; 30 min p.i.) was 0.09 ± 0.03 % of injected dose per gram tissue, the “Biodistribution, Spleen” value ([6]; 30 min p.i.) was 2.19 ± 0.18 % of injected dose per gram tissue and the “Biodistribution, Stomach” value ([6]; 30 min p.i.) was 0.03 ± 0.00 % of injected dose per gram tissue. For the same compound, the “Biodistribution, Thyroid” value ([6]; 30 min p.i.) was 0.16 ± 0.02 % of injected dose per gram tissue, the “Necrotic liver/Blood ratio” value ([6]; 30 min p.i.) was 1.44 ± 0.10 and the “Necrotic liver/Intact liver ratio” value ([6]; 30 min p.i.) was 0.57 ± 0.28. For the same compound, the “Necrotic liver/Muscle ratio” value ([6]; 30 min p.i.) was 75.80 ± 16.34, the “Biodistribution, Blood” value ([6]; 24 h p.i.) was 0.10 ± 0.01 % of injected dose per gram tissue and the “Biodistribution, Heart” value ([6]; 24 h p.i.) was 0.24 ± 0.08 % of injected dose per gram tissue. The “Biodistribution, Kidneys” value ([6]; 24 h p.i.) was 0.18 ± 0.02 % of injected dose per gram tissue, the “Biodistribution, Large intestine” value ([6]; 24 h p.i.) was 1.47 ± 0.13 % of injected dose per gram tissue and the “Biodistribution, Lungs” value ([6]; 24 h p.i.) was 1.06 ± 0.30 % of injected dose per gram tissue. The “Biodistribution, Muscle” value ([6]; 24 h p.i.) was 0.03 ± 0.00 % of injected dose per gram tissue, the “Biodistribution, Necrotic liver” value ([6]; 24 h p.i.) was 1.71 ± 0.32 % of injected dose per gram tissue and the “Biodistribution, Normal liver” value ([6]; 24 h p.i.) was 0.55 ± 0.15 % of injected dose per gram tissue. For the same compound, the “Biodistribution, Small intestine” value ([6]; 24 h p.i.) was 0.27 ± 0.02 % of injected dose per gram tissue, the “Biodistribution, Spleen” value ([6]; 24 h p.i.) was 0.43 ± 0.07 % of injected dose per gram tissue and the “Biodistribution, Stomach” value ([6]; 24 h p.i.) was 0.37 ± 0.13 % of injected dose per gram tissue. For the same compound, the “Biodistribution, Thyroid” value ([6]; 24 h p.i.) was 9.25 ± 3.25 % of injected dose per gram tissue, the “Necrotic liver/Blood ratio” value ([6]; 24 h p.i.) was 17.40 ± 1.19 and the “Necrotic liver/Intact liver ratio” value ([6]; 24 h p.i.) was 3.18 ± 0.49. The “Necrotic liver/Muscle ratio” value ([6]; 24 h p.i.) was 57.09 ± 4.24.
For `Cc1cc(O)c2c(=O)c3c(O)cc(O)c4c5c(O)cc(O)c6c(=O)c7c(O)cc(C)c8c1c2c(c34)c(c78)c65` [hypericine, hypericin, reference compound], the “binding to HDL and LDL in vivo” value [1] is listed as “bind extensively to HDL and LDL”.
